Key:
peritoneum = assay: Chronic peritoneal dialysis in rats, peritoneal equilibrium test (PET); format: in vivo, rat; conditions: rats dialysed daily for four weeks with PDF, aliskiren 0.1 or 1 mg/Kg, FIGS. 12 and 13
Description: The rats were exposed daily for four weeks to carrier (saline serum), 1.5% PDF, 2.3% PDF or 4.5% PDF supplemented by carrier, 0.1 mg/Kg aliskiren or 1 mg/Kg aliskiren. The data are expressed as mean±SEM, n=6 rats per group. * p<0.05, compared to the group treated with carrier in the absence of aliskiren (carrier). # p<0.05, compared to their respective groups treated with PDFs in the absence of aliskiren. […] The rats were exposed daily for four weeks to carrier (saline serum), 1.5% PDF, 2.3% PDF or 4.5% PDF supplemented by carrier, 0.1 mg/Kg aliskiren or 1 mg/Kg aliskiren. The data is expressed as mean media±SEM, n=6 rats per group. * p<0.05, compared to the group treated with carrier in the absence of aliskiren (carrier). # p<0.05, compared to their respective groups treated with PDFs in the absence of aliskiren. […] Their body weight was measured at the start and end of the experimental period. […] The concentrations of creatinine and glucose in the serum and dialysate were measured using enzymatic methods. The peritoneal transport of solutes was calculated, on one hand, as the glucose concentration in the dialysate 2 hours after the PET relative to the initial glucose concentration in the PDF (D2/D0 glucose) and, on the other, as the dialysate/plasma creatinine concentration ratio (D2/P2 creatinine) 2 h after the PET. […]

p53 = assay: Real-time RT-PCR in PMCs from dialysed rats; format: in vivo, rat; conditions: peritoneal cells from rats dialysed four weeks, aliskiren 0.1 or 1 mg/Kg, FIG. 14
Description: The rats were exposed daily for four weeks to carrier (saline serum), 1.5% PDF, 2.3% PDF or 4.5% PDF supplemented by, 0.1 mg/Kg aliskiren or 1 mg/Kg aliskiren. The data is expressed as mean±SEM, n=6 rats per group. * p<0.05, compared to the group treated with carrier in the absence of aliskiren (carrier). # p<0.05, compared to their respective groups treated with PDFs in the absence of aliskiren. […]
At the end of the experimental period (four weeks), 30 ml of a commercial PDF with 2.3% glucose (Fresenius Medical Car, Bad Homburg, Germany) was administered intraperitoneally using a 22G needle. […] Their body weight was measured at the start and end of the experimental period. […]
The blood and dialysate samples were centrifuged and stored at −20° C. The concentrations of creatinine and glucose in the serum and dialysate were measured using enzymatic methods. The peritoneal transport of solutes was calculated, on one hand, as the glucose concentration in the dialysate 2 hours after the PET relative to the initial glucose concentration in the PDF (D2/D0 glucose) and, on the other, as the dialysate/plasma creatinine concentration ratio (D2/P2 creatinine) 2 h after the PET. […]
The RNA expression was evaluated by real-time RT-PCR in PMCs. […] RNA quality and concentration was evaluated by spectrophotometry (Infinite 200, Tecan, Salzburg, Austria) using 1 μl of the RNA sample. […]

COCCCOc1cc(C[C@@H](C[C@H](N)[C@@H](O)C[C@H](C(=O)NCC(C)(C)C(N)=O)C(C)C)C(C)C)ccc1OC [aliskiren] was tested, and the “peritoneal damage in vivo (D2/D0 glucose, D2/P2 creatinine)” value (peritoneum) was “reduced peritoneal damage” and the “RNAm expression of pro-apoptotic protein p53” value (p53) was “reduced”.
